From patent US11725204B2, “Multiplex genome engineering in eukaryotes” (priority 2016, dated 2023)

Key:
Assay type in all cases: cell-based, S. cerevisiae
[1] = system: ADE2; experiment: eMAGE allelic replacement frequency at Ori-URA3-ADE2 locus (5-FOA selection, red/white screening)
Protocol: A list of ssODNs used for FIGS. 1-4 in this study can be found in Table 2. For eMAGE experiments, a single colony was inoculated in 2 mL CSM-Ura medium and grown overnight to saturation. The next day the culture was diluted 1:50 in 10 mL of CSM-Ura and grown for 6 hours prior to electroporation. The ssODN concentration and size were determined from optimization experiments performed in Figure S2D,F. A total of 20 uM of 90nt ssODNs consisting of 50% selection ssODN 50% target ssODN(s) was used for eMAGE transformations. The optimal HU concentration was determined from figure S2A. The eMAGE pretreatment mixture contained 500 mM HU in TE pH 8/500 mM Lithium Acetate/25 mM DTT. Electroporation for eMAGE was performed exactly as described above. After 12 hours of recovery, ˜10^5 cells were plated on 5-FOA selection plates for msh2Δ and MMR mutant strains and ˜10^7 cells were plated for strains with WT MMR. The resultant 5-FOA plates contained ˜100 colonies which were subject to screening for target ssODN incorporation. The indicated ARF values represent mean+/−SD. All data sets were collected in triplicate. For the Rad51 chemical inhibitor experiment (Figure S1J) the recovery medium was supplemented with inhibitor RI-1 (Abcam ab144558)+1.5% DMSO for solubility.
Experiments were designed to determine if Rad51-dependent ssODN recombination and incorporation of ssODNs at the DNA replication fork are two distinct pathways in eukaryotes (FIG. 1A). Unlike the E. coli chromosome, the linear chromosomes of S. cerevisiae contain multiple firing origins of replication that confound the precise designation of the lagging strand at each locus (Raghuraman, et al., Science, 294:115-121 (2001); Wyrick, et al., Science, 294:2357-2360 (2001)). Sherman and colleagues observed high frequencies of co-transformation for two ssODNs targeted within a cyc1 mutant gene when one of the ssODNs included a selectable mutation (Yamamoto, et al., Yeast, 8:935-948 (1992a)). […] Experiments were designed to determine whether Sherman's observation could be expanded for ssODNs targeting multiple proximal genes by constructing an experimental locus on chromosome XV with a defined DNA replication direction by placing the URA3 gene proximal to the origin ARS1516 (Ori) directly adjacent to ADE2, which confers a colorimetric phenotype (WT=white; Mutant=red) (FIG. 1C). Cells were transformed with ssODNs targeting the predicted lagging strand of both URA3 and ADE2, and it was observed that ssODN-derived modifications at ADE2 were increased by >10^4-fold (ARF=22%) in URA3-edited (5-FOA resistant) clones (FIG. 1C). […]

[2] = system: target sites at increasing distances from the URA3 marker; experiment: Target distance efficiency determination (red/white screening or colony PCR with EcoRI digestion); settings: +HU
Protocol: Target mutation distance is reported as the distance between the URA3 marker mutation incorporated by the selection-ssODN and the mutation incorporated by the target-ssODN. For target distances of 1 and 2 kb, ssODNs ADE290RC and ADE2_Mult10 were used within the ADE2 gene and the ARFs for these sites were determined by red/white phenotype screening. For targets at 5, 10, 15, and 20 kb distances from the Ori-URA3, target sites were chosen that differ by only a single base-pair from an EcoRI restriction site. The target ssODN was designed to incorporate a base-pair change to create the EcoRI restriction site. For each target assayed, 96 clones were analyzed by colony PCR (Primers for the amplicons analyzed are listed in Table 3) coupled to EcoRI (NEB) digestion of the amplicon for 1 hr at 37° C. The percentage of amplicons cut vs. uncut is represented as the ARF for each distance site. Each distance experiment was performed in triplicate+/−HU treatment. ARF values represent mean+/−SD.

[3] = system: ADE2; experiment: Multiplex incorporation of ssODNs and cycling (colony PCR and Sanger sequencing); settings: 10-target multiplexing, with HU
Protocol: For multiplex eMAGE experiments targeting ADE2, red clones that grew on 5-FOA plates were assayed via yeast colony PCR and Sanger sequencing (Genewiz). Insertions were chosen for easy sequence detection since degenerate mismatches would contain WT sequence positions. For cycling experiments, cells were recovered in recovery media after electroporation as described above. After recovery, the population was subjected to liquid selection in 5-FOA for odd cycles and CSM-Ura for even numbered cycles to enrich for edited clones. Selections were performed for 500 uL of recovery culture seeded into 50 mL of selection medium and grown to saturation at 30° C. (˜2 days).
After the first 1:100 selection the population was diluted 1:50 in selection media and grown for 6 hours for the next electroporation step. The process was repeated for 3 cycles. A total of 100 red clones were sequenced after each cycle. For cycles 1 and 2, 200 unique genotypes were observed out of […], but for cycle 3, 76 unique genotypes were observed out of the 100 clones sequenced. Given that the degeneracy of the ssODN pool largely out-scales the number of clones assayed redundant genotypes would not be expected to arise for independent clones in any cycle assayed. The 24 redundant clones observed in cycle 3 were comprised of 5 genotypes. […]

[4] = system: URA3; experiment: Spontaneous URA3 mutations with transient HU treatment
Protocol: Experiments were designed to determine if transient treatment with HU would increase the efficiency for ssODN annealing at the replication fork. A 30 minute treatment with 500 mM HU increased the ARF by ˜two-fold compared to the untreated condition. Seven different ssODNs containing a single base-pair mismatch (ssODNs 1,2,5-7), insertion (ssODN #4), or deletion (ssODN #3) in ADE2 were tested and an average ARF increase of 56% (FIG. 2A) was observed. […] The effect of ssODN size and concentration was also tested. Robust cell survival post electroporation (85%) was tested for ssODN concentrations up to 20 uM, which decreased to 45% at 80 uM ssODN. The efficiency of URA3 single-plex targeting increased with increasing ssODN size and concentration with the highest ARF observed (0.08%) for 100nt ssODN at 60 uM. For coupled ADE2-URA3 targeting an optimum ade2 mutant per 5-FOA CFU was determined using a 90nt ssODN at 20 uM. For all subsequent experiments 90nt ssODNs at 20 uM were used.

SMILES | ARF change with Rad51 inhibitor ([1]; recovery medium supplemented with RI-1 + 1.5% DMSO) | increase of ARF compared to the untreated condition ([1]; 30 minute treatment with 500 mM HU) | HU effect on ARF with HIS3 selection marker ([1]; HIS3 selection marker in replace of URA3) | average ARF increase ([1]; HU treatment, seven ssODNs with single base-pair mismatch, insertion or deletion in ADE2) | ARF vs target distance curve fit, Y0 ([2]; one-phase decay Y=(Y0−Z)*exp(−K*X)+Z) | ARF vs target distance curve fit, K ([2]; one-phase decay fit) | ARF vs target distance curve fit, Z ([2]; one-phase decay fit) | multiplex enhancement of ssODN incorporation ([3]; WT) | mean number of ssODNs incorporated ([3]; msh2Δ) | spontaneous URA3 mutations [4]
O=C1C(Cl)=C(N2CCOCC2)C(=O)N1c1ccc(Cl)c(Cl)c1 [RI-1] | ARF enhancement was observed | – | – | – | – | – | – | – | – | –
NC(=O)NO [HU, Hydroxyurea] | – | two-fold | HU effect was also observed | 56% | 49.6 | 0.279 | 2.25 | no multiplex enhancement | 3.4 per clone | no significant increase
